Counter-ions that a name gives are not always drawn.
system: HMOX1; assay: HMOX1 Protein Assay (immunostaining of HO-1 in NHLF cells, GE InCell 1000); type: cell-based; conditions: Homo sapiens, fold change above DMSO treated cells, 3 μM compound (asterisk), 16 h
Outline: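 Fold induction of HO-1 over vehicle, normally at 5 μM compound (asterisk marks 3 μM), in 0.8% DMSO medium. Normal human lung fibroblasts were treated 16 h, then paraformaldehyde-fixed, anti-HO-1/Alexa 488 stained with Hoechst, and read by high-content imaging.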

**Q.** With `Cn1c(Nc2nc3ccc(C(F)(F)F)cc3s2)nc2cc(C(=O)NCC(=O)N3CC[C@@H](O)C3)ccc21` [Example 402, 1-Methyl-2-(6-trifluoromethyl-benzothiazol-2-ylamino)-1H-benzoimidazole-5-carboxylic acid [2-((R)-3-hydroxy-pyrrolidin-1-yl)-2-oxo-ethyl]-amide] as the compound, how does the fold induction at 3 µM read?
**A.** 24

**Q.** How did the fold induction at 3 µM turn out when `CO[C@H]1CCN(C(=O)CNC(=O)c2ccc3c(c2)nc(Nc2nc4ccc(C(F)(F)F)cc4s2)n3C)C1` [Example 410, 1-Methyl-2-(6-trifluoromethyl-benzothiazol-2-ylamino)-1H-benzoimidazole-5-carboxylic acid [2-((S)-3-methoxy-pyrrolidin-1-yl)-2-oxo-ethyl]-amide] was run?
**A.** 24.7

**Q.** For `Cn1c(Nc2nc3ccc(Cl)cc3s2)nc2cc(C(=O)NCCC(=O)N3CCOCC3)ccc21` [Example 373, 2-(6-Chloro-benzothiazol-2-ylamino)-1-methyl-1H-benzoimidazole-5-carboxylic acid (3-morpholin-4-yl-3-oxo-propyl)-amide], which fold induction at 3 µM is on record?
**A.** 32

**Q.** Which fold induction at 3 µM does the source give for `Cn1c(Nc2nc3ccc(Cl)cc3s2)nc2cc(C(=O)NN3CCOCC3)ccc21` [Example 321, 2-(6-Chloro-benzothiazol-2-ylamino)-1-methyl-1H-benzoimidazole-5-carboxylic acid morpholin-4-ylamide] here?
**A.** 15.3

**Q.** `Cn1c(Nc2nc3ccc(OC(F)(F)F)cc3s2)nc2cc(C(=O)NCC(=O)N3CCC(C#N)CC3)ccc21` [Example 450, 1-Methyl-2-(6-trifluoromethoxy-benzothiazol-2-ylamino)-1H-benzoimidazole-5-carboxylic acid [2-(4-cyano-piperidin-1-yl)-2-oxo-ethyl]-amide] was tested. Which fold induction at 3 µM did it give?
**A.** 51

**Q.** Which fold induction at 3 µM does the source give for `C[C@@H](NC(=O)c1ccc2c(c1)nc(Nc1nc3ccc(C(F)(F)F)cc3s1)n2C)C(=O)N1CCOCC1` [Example 472, 1-Methyl-2-(6-trifluoromethyl-benzothiazol-2-ylamino)-1H-benzoimidazole-5-carboxylic acid ((R)-1-methyl-2-morpholin-4-yl-2-oxo-ethyl)-amide] here?
**A.** 23

**Q.** For `Cn1c(Nc2nc3ccc(Cl)cc3s2)nc2cc(C(=O)NCCCCCO)ccc21` [Example 227, 2-(6-Chloro-benzothiazol-2-ylamino)-1-methyl-1H-benzoimidazole-5-carboxylic acid (5-hydroxy-pentyl)-amide], which fold induction at 3 µM is on record?
**A.** 14

same assay, conditions: Homo sapiens, fold change above DMSO treated cells, 5 μM compound, 16 h

**Q.** How did the fold induction at 5 µM turn out when `COCCNC(=O)c1ccc2c(c1)nc(Nc1nc3ccc(C(F)(F)F)cc3s1)n2C` [Example 25, 1-Methyl-2-(6-trifluoromethyl-benzothiazol-2-ylamino)-1H-benzoimidazole-5-carboxylic acid (2-methoxy-ethyl)-amide] was run?
**A.** 27.1

**Q.** Which fold induction at 5 µM does the source give for `CCn1c(Nc2nc3ccc(C(F)(F)F)cc3s2)nc2cc(C(=O)NCC(C)(C)OC)ccc21` [Example 184, 1-Ethyl-2-(6-trifluoromethyl-benzothiazol-2-ylamino)-1H-benzoimidazole-5-carboxylic acid (2-methoxy-2-methyl-propyl)-amide] here?
**A.** 9.5

**Q.** Which fold induction at 5 µM does the source give for `C[C@H](NC(=O)c1ccc2c(c1)nc(Nc1nc3ccc(OC(F)(F)F)cc3s1)n2C)C(=O)N(C)C` [Example 149, 1-Methyl-2-(6-trifluoromethoxy-benzothiazol-2-ylamino)-1H-benzoimidazole-5-carboxylic acid ((S)-1-dimethylcarbamoyl-ethyl)-amide] here?
**A.** 38.7

**Q.** Which fold induction at 5 µM does the source give for `Cn1c(Nc2nc3ccc(Cl)cc3s2)nc2cc(C(=O)NCCN3CCC(F)(F)CC3)ccc21` [Example 335, 2-(6-Chloro-benzothiazol-2-ylamino)-1-methyl-1H-benzoimidazole-5-carboxylic acid [2-(4,4-difluoro-piperidin-1-yl)-ethyl]-amide] here?
**A.** 18.9

**Q.** With `Cn1c(Nc2nc3ccc(OC(F)(F)F)cc3s2)nc2cc(C(=O)NCCC3CCOCC3)ccc21` [Example 264, 1-Methyl-2-(6-trifluoromethoxy-benzothiazol-2-ylamino)-1H-benzoimidazole-5-carboxylic acid [2-(tetrahydro-pyran-4-yl)-ethyl]-amide] as the compound, how does the fold induction at 5 µM read?
**A.** 22.9

**Q.** With `Cn1c(Nc2nc3ccc(OC(F)(F)F)cc3s2)nc2cc(C(=O)NC3CCNCC3)ccc21` [Example 93, 1-Methyl-2-(6-trifluoromethoxy-benzothiazol-2-ylamino)-1H-benzoimidazole-5-carboxylic acid piperidin-4-ylamide hydrochloride] as the compound, how does the fold induction at 5 µM read?
**A.** 11.3

**Q.** `CCOCCNC(=O)c1ccc2c(c1)nc(Nc1nc3ccc(OC(F)(F)F)cc3s1)n2CCOC` [Example 169, 1-(2-Methoxy-ethyl)-2-(6-trifluoromethoxy-benzothiazol-2-ylamino)-1H-benzoimidazole-5-carboxylic acid (2-ethoxy-ethyl)-amide] was tested. Which fold induction at 5 µM did it give?
**A.** 24.4

**Q.** Which fold induction at 5 µM does the source give for `CN(C)C(=O)C1(NC(=O)c2ccc3c(c2)nc(Nc2nc4ccc(OC(F)(F)F)cc4s2)n3C)CC1` [Example 150, 1-Methyl-2-(6-trifluoromethoxy-benzothiazol-2-ylamino)-1H-benzimidazole-5-carboxylic acid (1-dimethylcarbamoyl-cyclopropyl)-amide] here?
**A.** 41.6

**Q.** With `CN(C)N(C)C(=O)c1ccc2c(c1)nc(Nc1nc3ccc(OC(F)(F)F)cc3s1)n2C` [Example 106, 1-Methyl-2-(6-trifluoromethoxy-benzothiazol-2-ylamino)-1H-benzimidazole-5-carboxylic acid trimethylhydrazide] as the compound, how does the fold induction at 5 µM read?
**A.** 23.8

**Q.** Which fold induction at 5 µM does the source give for `Cn1c(Nc2nc3ccc(OC(F)(F)F)cc3s2)nc2cc(C(=O)NC3CCCNC3)ccc21` (stereo not shown) [Example 95, 1-Methyl-2-(6-trifluoromethoxy-benzothiazol-2-ylamino)-1H-benzoimidazole-5-carboxylic acid piperidin-3-ylamide hydrochloride] here?
**A.** 11.2

**Q.** `Cn1c(Nc2nc3ccc(OC(F)(F)F)cc3s2)nc2cc(C(=O)NCCCn3cccn3)ccc21` [Example 11, 1-Methyl-2-(6-trifluoromethoxy-benzothiazol-2-ylamino)-1H-benzoimidazole-5-carboxylic acid (3-pyrazol-1-yl-propyl)-amide] was tested. Which fold induction at 5 µM did it give?
**A.** 25

**Q.** For `Cn1c(Nc2nc3ccc(F)cc3s2)nc2cc(C(=O)O)ccc21` [Example 118, 2-(6-Fluoro-benzothiazol-2-ylamino)-1-methyl-1H-benzimidazole-5-carboxylic acid], which fold induction at 5 µM is on record?
**A.** 14.1

**Q.** For `CSCCCNC(=O)c1ccc2c(c1)nc(Nc1nc3ccc(OC(F)(F)F)cc3s1)n2C` [Example 108, 1-Methyl-2-(6-trifluoromethoxy-benzothiazol-2-ylamino)-1H-benzoimidazole-5-carboxylic acid (3-methylsulfanyl-propyl)-amide], which fold induction at 5 µM is on record?
**A.** 18.3

**Q.** For `Cn1c(Nc2nc3ccc(OC(F)(F)F)cc3s2)nc2cc(C(=O)NCCOCCNS(C)(=O)=O)ccc21` [Example 276, 1-Methyl-2-(6-trifluoromethoxy-benzothiazol-2-ylamino)-1H-benzoimidazole-5-carboxylic acid [2-(2-methanesulfonylamino-ethoxy)-ethyl]-amide], which fold induction at 5 µM is on record?
**A.** 61.2

**Q.** For `COc1cc2c(cc1C(=O)NCCN1CCOCC1)nc(Nc1nc3ccc(OC(F)(F)F)cc3s1)n2C` [Example 66, 6-Methoxy-1-methyl-2-(6-trifluoromethoxy-benzothiazol-2-ylamino)-1H-benzoimidazole-5-carboxylic acid (2-morpholin-4-yl-ethyl)-amide], which fold induction at 5 µM is on record?
**A.** 20.8

From patent publication US8759535B2, “Substituted fused imidazole derivatives, pharmaceutical compositions, and methods of use thereof” (High Point Pharmaceuticals, LLC, priority 2010, dated 2014)
